According to PMC8781304, “Arene-Ruthenium(II) Complexes with Carbothiamidopyrazoles as a Potential Alternative for Antibiotic Resistance in Human” (Molecules, 2022):

Legend:
[1] = tested on: S. epidermidis ATCC 12228; experiment: Cell lysis (bacteriolysis, OD600); type: cell-based, Staphylococcus epidermidis; conditions: 1 × MBC
[2] = tested on: Staphylococcus aureus ATCC 29213; experiment: Fluorescence microscopy, Hoechst 33258 / propidium iodide viability; type: cell-based; conditions: S. aureus ATCC 29213; MIC concentration, 24 h
Description: (§1) Staphylococcus aureus ATCC 29213 and Staphylococcus epidermidis ATCC 12228 strains were treated with tested compounds 2a–2d and 3a–3d at a concentration 1 × MIC for 24h, while untreated cells were used as a growth control. After incubation, the cells were harvested and a suspension of 1 × 10^5 cells/mL in PBS was prepared. Following this, 1 µl of the fluorescent dyes Hoechst 33258 and propidium iodide (15 µg/mL each) (Sigma, St. Louis, MO, USA) were added. The obtained mixture was incubated in the dark at room temperature for 15–20 min. After incubation, the cell suspensions, placed on glass slides, were analyzed under an Olympus IX 70 fluorescence microscope (Shinjuku, Tokyo, Japan), using a 360–370 nm UV filter. Photos were taken at 10 × 20 magnification.

[3] = tested on: Staphylococcus epidermidis ATCC 12228; experiment: as above; type: cell-based; conditions: S. epidermidis ATCC 12228; MIC concentration, 24 h
Description: as §1

[4] = tested on: Supercoiled plasmid pUC57 DNA; experiment: Cleavage of pUC57 DNA, agarose gel electrophoresis; type: biochemical; conditions: pUC57, 100, 200 and 300 µM
Description: DNA supercoiling plays a key role in gene expression and genome organization. The agarose gel electrophoresis assay was used to check whether the tested complexes 3a–3c are able to cleave DNA. Supercoiled plasmid pUC57 DNA (4634 bp); Thermo Scientific, ABO Sp. z o.o., Gdansk, Poland), was incubated with tested compounds (100, 200 and 300 µM). Next, loading buffer (1 μL) containing […] bromophenol blue, 0.25% xylene cyanol and 30% glycerol was added to allow the samples to be loaded into 1% w/v agarose gel. Electrophoresis was performed at 75 V in Tris-acetate- EDTA (TAE) buffer. The gel was stained using Midori green advance DNA stain (Genetics, ABO Sp. z o.o., Gdansk, Poland), and visualised under UV light with the BioRad Gel Doc 2000 system using LABWORK software (Hercules, California, USA). All experiments were carried out in triplicate under the same conditions.

S. aureus ATCC 29213 = experiment: Synergy with oxacillin and vancomycin, partial checkerboard broth microdilution; type: cell-based, Staphylococcus aureus; conditions: S. aureus ATCC 29213; for FIC (Oxa) / FIC (Van): MIC antibiotic in combination/MIC antibiotic alone; for MIC Oxa in Combination: oxacillin with the complex at ½ MIC (NH4PF6 250 µg/mL); for MIC Van in Combination: vancomycin with the complex at ½ MIC (NH4PF6 250 µg/mL)
[5] = tested on: S. epidermidis ATCC 12228; experiment: as above; type: cell-based, Staphylococcus epidermidis; conditions: S. epidermidis ATCC 12228; for FIC (Oxa) / FIC (Van): MIC antibiotic in combination/MIC antibiotic alone; for MIC Oxa in Combination: oxacillin with the complex at ½ MIC (NH4PF6 250 µg/mL); for MIC Van in Combination: vancomycin with the complex at ½ MIC (NH4PF6 250 µg/mL)
[6] = tested on: S. epidermidis ATCC 12228; experiment: Time-kill test; type: cell-based, Staphylococcus epidermidis; conditions: 1 × MIC
Description: The time-kill experiments were performed as described previously. Briefly, inocula were prepared in TSB medium (TSB; […] BTL Sp. z o.o., Łódź, Poland). All samples were incubated at 35 °C and 80 rpm for varied time intervals (2, 4, 6, 12, 18, 24, 48h). The percentage of dead cells was calculated according to the growth control by determining the number of living cells (CFU/mL) of each tube using the agar plate count method. Samples were immediately serially diluted ten-fold in 0.01 M phosphate buffered saline (PBS, Bimed Lublin S.A., Lublin, Poland) at pH 7.0 and 10 μL aliquots were spot-inoculated in duplicate onto MHA plates. Agar plates were incubated at 37 °C overnight before determining the viable count. Two independent experiments were carried out.

[7] = tested on: Proteus vulgaris ATCC 8427; experiment: MIC and MBC/MFC by broth microdilution; type: cell-based; conditions: P. vulgaris ATCC 8427
Description: (§2) Reference strains of bacteria and fungi: Staphylococcus aureus ATCC 29213, Staphylococcus epidermidis ATCC 12228, Enterococcus faecalis ATCC 29212, Pseudomonas aeruginosa ATCC 25619, Proteus vulgaris ATCC 8427, and Candida albicans ATCC 10231 (Manassas, VA, USA) were used to screen the antimicrobial activity of the arene-ruthenium(II) complexes 3a-3d, NH4PF6 and selected antibiotics. The microorganisms were grown for 24 h (bacteria) or 48 h (fungi) in 35-37 °C in tryptic-soy agar (TSA; BTL Sp. z o.o., Łódź, Poland) or Sabouraud's dextrose agar (SDA; BTL Sp. z o.o., Łódź, Poland) according to nutritional requirements. Microbial suspensions at a density of about 5 × 10^5 CFU/mL were prepared in Mueller-Hinton broth (MHB; BTL Sp. z o.o., Łódź, Poland) or RPMI-1640 medium (Sigma, St. Louis, MO, USA) for bacteria and fungi, respectively. […] Louis, MO, USA). Stock solutions of the lyophilized compounds were freshly prepared in 100% DMSO (POCh, Gliwice, Poland) for the complexes, or in water for injection (Sigma, St. Louis, MO, USA) in the case of antibiotics. […] MIC and MBC/MFC were defined as the lowest concentrations of the compounds inhibiting bacterial/fungal growth or able to kill added microbial inoculum, respectively, and were evaluated as described by […] et al.. Experiments were carried out in duplicate.

[8] = tested on: Staphylococcus aureus ATCC 29213; experiment: MIC and MBC/MFC by broth microdilution; type: cell-based; conditions: S. aureus ATCC 29213
Description: as §2

[9] = tested on: Staphylococcus epidermidis ATCC 12228; experiment: MIC and MBC/MFC by broth microdilution; type: cell-based; conditions: S. epidermidis ATCC 12228
Description: as §2

[10] = tested on: Enterococcus faecalis ATCC 29212; experiment: MIC and MBC/MFC by broth microdilution; type: cell-based; conditions: E. faecalis ATCC 29212
Description: as §2

[11] = tested on: Candida albicans ATCC 10231; experiment: MIC and MBC/MFC by broth microdilution; type: cell-based; conditions: C. albicans ATCC 10231
Description: as §2

[12] = tested on: Pseudomonas aeruginosa ATCC 25619; experiment: MIC and MBC/MFC by broth microdilution; type: cell-based; conditions: P. aeruginosa ATCC 25619
Description: as §2

Compound: Cc1cc(C)[n+]2n1C(N)=[S+][Ru-]2[Cl].Cc1ccc(C(C)C)cc1.F[P-](F)(F)(F)(F)F [Compound 3a]
- Cell lysis, change of OD600 [1]: not found to change OD600 values
- Change in bacterial viability (Hoechst 33258 / PI fluorescence) [2]: Less changes in cell survival
- Change in bacterial viability (Hoechst 33258 / PI fluorescence) [3]: Less changes in cell survival
- Cleavage of plasmid DNA, in words [4]: did not affect DNA structure
- FIC (Oxa) (S. aureus ATCC 29213): 1
- FIC (Van) (S. aureus ATCC 29213): 1
- MIC Oxa in Combination (S. aureus ATCC 29213): 0.250 µg/mL
- MIC Van in Combination (S. aureus ATCC 29213): 0.50 µg/mL
- FIC (Oxa) [5]: 0.06
- FIC (Van) [5]: 0.03
- MIC Oxa in Combination [5]: 0.015 µg/mL
- MIC Van in Combination [5]: 0.015 µg/mL
- Time-kill: bacteriostatic or bactericidal [6]: bacteriostatic
- MBC/MFC [7]: >1000 µg/mL
- MIC [7]: >1000 µg/mL
- MBC/MFC [8]: 62.5 µg/mL
- MIC [8]: 62.5 µg/mL
- MBC/MFC [9]: 125 µg/mL
- MIC [9]: 125 µg/mL
- MBC/MFC [10]: 125 µg/mL
- MIC [10]: 125 µg/mL
- MBC/MFC [11]: >1000 µg/mL
- MIC [11]: 500 µg/mL
- MBC/MFC [12]: >1000 µg/mL
- MIC [12]: >1000 µg/mL

Compound: CCc1cc(CC)[n+]2n1C(N)=[S+][Ru-]2[Cl].Cc1ccc(C(C)C)cc1.F[P-](F)(F)(F)(F)F [Compound 3b]
- Cell lysis, change of OD600 [1]: not found to change OD600 values
- Change in bacterial viability (Hoechst 33258 / PI fluorescence) [2]: Less changes in cell survival
- Change in bacterial viability (Hoechst 33258 / PI fluorescence) [3]: Less changes in cell survival
- Cleavage of plasmid DNA, in words [4]: able to cut plasmid DNA
- Correlation with Oxa and Van (synergy), in words (S. aureus ATCC 29213): synergistic effects
- FIC (Oxa) (S. aureus ATCC 29213): 0.5
- FIC (Van) (S. aureus ATCC 29213): 0.25
- MIC Oxa in Combination (S. aureus ATCC 29213): 0.125 µg/mL
- MIC Van in Combination (S. aureus ATCC 29213): 0.125 µg/mL
- Correlation with Oxa and Van (synergy), in words [5]: synergistic effect in all tested configurations
- FIC (Oxa) [5]: 0.06
- FIC (Van) [5]: 0.03
- MIC Oxa in Combination [5]: 0.015 µg/mL
- MIC Van in Combination [5]: 0.015 µg/mL
- Time-kill: bacteriostatic or bactericidal [6]: bacteriostatic
- MBC/MFC [7]: >1000 µg/mL
- MIC [7]: >1000 µg/mL
- MBC/MFC [8]: 62.5 µg/mL
- MIC [8]: 62.5 µg/mL
- MBC/MFC [9]: 62.5 µg/mL
- MIC [9]: 31.2 µg/mL
- MBC/MFC [10]: 125 µg/mL
- MIC [10]: 62.5 µg/mL
- MBC/MFC [11]: >1000 µg/mL
- MIC [11]: 1000 µg/mL
- MBC/MFC [12]: >1000 µg/mL
- MIC [12]: >1000 µg/mL

Compound: [(η^6-p-cymene)Ru(1-[amino(thioxo)methyl]-5-hydroxy-3-phenyl-1H-pyrazole)PF6 [Compound 3c]
- Cell lysis, change of OD600 [1]: quite moderate decrease in OD600
- Change in bacterial viability (Hoechst 33258 / PI fluorescence) [2]: greatest changes in bacterial viability
- Change in bacterial viability (Hoechst 33258 / PI fluorescence) [3]: greatest changes in bacterial viability
- Cleavage of plasmid DNA, in words [4]: able to cut plasmid DNA
- FIC (Oxa) (S. aureus ATCC 29213): 1
- FIC (Van) (S. aureus ATCC 29213): 1
- MIC Oxa in Combination (S. aureus ATCC 29213): 0.250 µg/mL
- MIC Van in Combination (S. aureus ATCC 29213): 0.50 µg/mL
- FIC (Oxa) [5]: 0.06
- FIC (Van) [5]: 0.03
- MIC Oxa in Combination [5]: 0.015 µg/mL
- MIC Van in Combination [5]: 0.015 µg/mL
- Time-kill: bacteriostatic or bactericidal [6]: bactericidal
- MBC/MFC [7]: >1000 µg/mL
- MIC [7]: >1000 µg/mL
- MBC/MFC [8]: 31.2 µg/mL
- MIC [8]: 15.6 µg/mL
- MBC/MFC [9]: 31.2 µg/mL
- MIC [9]: 31.2 µg/mL
- MBC/MFC [10]: 250 µg/mL
- MIC [10]: <31.2 µg/mL
- MBC/MFC [11]: >1000 µg/mL
- MIC [11]: >1000 µg/mL
- MBC/MFC [12]: >1000 µg/mL
- MIC [12]: >1000 µg/mL
